According to patent US7732604B2, “Triazolopyrazine derivatives” (Pfizer Inc., priority 2006, dated 2010):
Structures can show the parent of a compound that is named as a salt.

Target: T1, HGFR (Homo sapiens, UniProt P08581)
T1 construct: purchased Upstate 14-526
Experiment: HGFR continuous-coupled spectrophotometric assay (tyrosine kinase activity on Met-2 substrate peptide)
Format: biochemical
Settings: HGFR 50 nM, Met-2 peptide 0.5 mM, ATP 300 μM, 37° C., absorbance 340 nm; read-out: Ki

T1 sequence (P08581 974-1390 limits assumed): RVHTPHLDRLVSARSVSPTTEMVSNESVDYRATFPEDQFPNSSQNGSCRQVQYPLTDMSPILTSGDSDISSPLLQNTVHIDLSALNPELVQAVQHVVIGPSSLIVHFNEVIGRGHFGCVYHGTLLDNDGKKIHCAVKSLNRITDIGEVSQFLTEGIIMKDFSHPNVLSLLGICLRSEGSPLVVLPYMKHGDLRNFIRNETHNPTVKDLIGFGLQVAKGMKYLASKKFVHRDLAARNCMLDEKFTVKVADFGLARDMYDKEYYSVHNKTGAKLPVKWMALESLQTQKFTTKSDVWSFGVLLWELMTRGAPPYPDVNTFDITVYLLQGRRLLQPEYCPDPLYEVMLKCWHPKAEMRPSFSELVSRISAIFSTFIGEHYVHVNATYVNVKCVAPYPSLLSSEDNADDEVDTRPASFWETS

Q: With CN(CCS(C)(=O)=O)c1cnc2nnn(Cc3ccc4ncccc4c3)c2n1 [Example 85, N-methyl-N-[2-(meth-ylsulfonyl)ethyl]-1-(quino-lin-6-yl-methyl)-1H-[1,2,3]tri-azolo[4,5-b]pyra-zin-6-amine] as the compound, how does the Ki read?
A: 12 nM

Q: With CNCC1(O)CCN(c2cnc3nnn(Cc4ccc5ncccc5c4)c3n2)C1 (stereo not drawn) [Example 155, 3-[(meth-ylamino)meth-yl]-1-[1-(quino-lin-6-yl-methyl)-1H-[1,2,3]tri-azolo[4,5-b]pyra-zin-6-yl]pyrro-lidin-3-ol] as the compound, how does the Ki read?
A: 43 nM

Q: CC(C)(C)OC(=O)N[C@@H]1CCN(c2cnc3nnn(Cc4ccc5ncccc5c4)c3n2)C1 [Example 200, (R)-tert-butyl 1-(3-(quino-lin-6-yl-methyl)-3H-[1,2,3]tri-azolo[4,5-b]pyra-zin-5-yl)pyrrolidin-3-ylcarbamate] was tested. Which Ki did it give?
A: 162 nM

Q: Which Ki does the source give for CNC(=O)CCNc1cnc2nnn(Cc3ccc4ncccc4c3)c2n1 [Example 125] here?
A: 15 nM

Q: How did the Ki turn out when CN(Cc1cc(-c2ccccn2)no1)c1cnc2nnn(Cc3ccc4ncccc4c3)c2n1 [Example 93, N-methyl-N-[(3-pyri-din-2-ylisoxa-zol-5-yl)meth-yl]-1-(quino-lin-6-yl-methyl)-1H-[1,2,3]tri-azolo[4,5-b]pyra-zin-6-amine] was run?
A: 29 nM

Q: With CCOCC(O)CNc1cnc2nnn(Cc3ccc4ncccc4c3)c2n1 (stereo not drawn) [Example 132, 1-ethoxy-3-{[1-(quino-lin-6-yl-methyl)-1H-[123]tri-azolo[45-b]pyra-zin-6-yl]ami-no}propan-2-ol] as the compound, how does the Ki read?
A: 8 nM

Q: How did the Ki turn out when CN(C)CCNC(=O)c1ccc(-c2cnc3nnn(Cc4ccc5ncccc5c4)c3n2)cc1 [Example 13, N-(2-(dimethylamino)ethyl)-4-(3-(quinolin-6-ylmethyl)-3H-[1,2,3]triazolo[4,5-b]pyrazin-5-yl)benzamide] was run?
A: 3 nM

Q: How did the Ki turn out when CCN(CC)c1cnc2nnn(Cc3ccc4ncccc4c3)c2n1 [Example 160, N,N-diethyl-1-(quino-lin-6-yl-methyl)-1H-[1,2,3]tri-azolo[4,5-b]pyra-zin-6-amine] was run?
A: 13 nM

Q: How did the Ki turn out when O=C1CN(c2cnc3nnn(Cc4ccc5ncccc5c4)c3n2)CCN1 [Example 83, 4-[1-(quinolin-6-yl-methyl)-1H-[1,2,3]tri-azolo[4,5-b]py-razin-6-yl]pipe-razin-2-one] was run?
A: 34 nM

Q: How did the Ki turn out when CC(C)(O)c1cnc2nnn(Cc3ccc4ncccc4c3)c2n1 [Example 182, 2-(3-Quinolin-6-yl-methyl-3H-[1,2,3]tri-azolo[4,5-b]pyra-zin-5-yl)-pro-pan-2-ol] was run?
A: 857 nM

Q: For COC(=O)c1cnc2nnn(Cc3ccc4ncccc4c3)c2n1 [Example 196, methyl 1-(quino-lin-6-yl-methyl)-1H-[1,2,3]tri-azolo[4,5-b]pyra-zine-6-carboxylate], which Ki is on record?
A: 174 nM

Q: Which Ki does the source give for OC[C@H]1C[C@@H]1CNc1cnc2nnn(Cc3ccc4ncccc4c3)c2n1 [Example 129, [(1S,2S)-2-({[1-(quino-lin-6-yl-methyl)-1H-[1,2,3]tri-azolo[4,5-b]pyrazin-6-yl]ami-no}methyl)cyclo-propyl]methanol] here?
A: 13 nM

Q: For c1cnc2ccc(Cn3nnc4ncc(NCc5cc(C6CC6)[nH]n5)nc43)cc2c1 [Example 124, N-[(5-cyclo-propyl-1H-pyra-zol-3-yl)meth-yl]-1-(quino-lin-6-yl-methyl)-1H-[1,2,3]tri-azolo[4,5-b]pyra-zin-6-amine], which Ki is on record?
A: 35 nM

Q: For CC1(CO)CCCN(c2cnc3nnn(Cc4ccc5ncccc5c4)c3n2)C1 (stereo not drawn) [Example 90, {3-methyl-1-[1-(quino-lin-6-yl-methyl)-1H-[1,2,3]tri-azolo[4,5-b]pyra-zin-6-yl]pipe-ridin-3-yl}methanol], which Ki is on record?
A: 39 nM

Q: Which Ki does the source give for CCCCOc1cnc2nnn(Cc3ccc4ncccc4c3)c2n1 [Example 161, 6-[(6-butoxy-1H-[1,2,3]tri-azolo[4,5-b]pyra-zin-1-yl)meth-yl]quinoline] here?
A: 14 nM

Q: Which Ki does the source give for CCc1noc(C2CCN(c3cnc4nnn(Cc5ccc6ncccc6c5)c4n3)CC2)n1 [Example 102, 6-({6-[4-(3-eth-yl-124-oxa-diazol-5-yl)pipe-ridin-1-yl]-1H-[1,2,3]tri-azolo[4,5-b]pyra-zin-1-yl}meth-yl)quinoline] here?
A: 24 nM

Q: With CN(C)C1CCN(c2cnc3nnn(Cc4ccc5ncccc5c4)c3n2)CC1 [Example 27] as the compound, how does the Ki read?
A: 45 nM

Q: N[C@H]1CCCN(c2cnc3nnn(Cc4ccc5ncccc5c4)c3n2)C1 [Example 32, (S)-1-(3-(quinolin-6-ylmethyl)-3H-[1,2,3]triazolo[4,5-b]pyrazin-5-yl)piperidin-3-amine dihydrochloride] was tested. Which Ki did it give?
A: 69 nM

Q: For NC(=O)CNc1cnc2nnn(Cc3ccc4ncccc4c3)c2n1 [Example 140, N~2~-[1-(quino-lin-6-yl-methyl)-1H-[1,2,3]tri-azolo[4,5-b]pyra-zin-6-yl]glycinamide], which Ki is on record?
A: 47 nM

Q: c1cnc2ccc(Cn3nnc4ncc(N5CC[C@@H](N6CCOCC6)C5)nc43)cc2c1 [Example 153, 6-({6-[(3R)-3-morpho-lin-4-ylpyrro-lidin-1-yl]-1H-[1,2,3]tri-azolo[4,5-b]pyra-zin-1-yl}meth-yl)quinoline] was tested. Which Ki did it give?
A: 15 nM

Q: CC(C)(C)OC(=O)N1CCN(c2cnc3nnn(Cc4ccc5ncccc5c4)c3n2)CC1 [Example 201, tert-butyl 4-(3-(quino-lin-6-yl-methyl)-3H-[1,2,3]tri-azolo[4,5-b]pyra-zin-5-yl)pipe-razine-1-carboxylate] was tested. Which Ki did it give?
A: 182 nM

Q: With CC1(C)CN(c2cnc3nnn(Cc4ccc5ncccc5c4)c3n2)C(=O)N1 [Example 190, 4,4-dimethyl-1-[1-(quino-lin-6-yl-methyl)-1H-[1,2,3]tri-azolo[4,5-b]pyra-zin-6-yl]imida-zolidin-2-one] as the compound, how does the Ki read?
A: 647 nM

Q: Which Ki does the source give for CN(C)CCN(C)C(=O)c1ccc(-c2cnc3nnn(Cc4ccc5ncccc5c4)c3n2)cc1 [Example 12, N-(2-(dimethylamino)ethyl)-N-methyl-4-(3-(quinolin-6-ylmethyl)-3H-[1,2,3]triazolo[4,5-b]pyrazin-5-yl)benzamide] here?
A: 38 nM

Q: How did the Ki turn out when CC(=O)N1CC[C@@H](Nc2cnc3nnn(Cc4ccc5ncccc5c4)c3n2)C1 [Example 126, N-[(3R)-1-acetyl-pyrrolidin-3-yl]-1-(quino-lin-6-yl-methyl)-1H-[1,2,3]tri-azolo[4,5-b]pyra-zin-6-amine] was run?
A: 16 nM

Q: How did the Ki turn out when CN(C)C(=O)CCNc1cnc2nnn(Cc3ccc4ncccc4c3)c2n1 [Example 121, N,N-dimethyl-N~3~-[1-(quino-lin-6-yl-methyl)-1H-[1,2,3]tri-azolo[4,5-b]pyra-zin-6-yl]-beta-alaninamide] was run?
A: 22 nM

Q: How did the Ki turn out when FC1(F)CCN([C@H]2CCN(c3cnc4nnn(Cc5ccc6ncccc6c5)c4n3)C2)CC1 [Example 207, 6-({6-[(3S)-3-(4,4-di-fluoropiperidin-1-yl)pyrro-lidin-1-yl]-1H-[1,2,3]tri-azolo[4,5-b]pyra-zin-1-yl}meth-yl)quinoline. TFA salt] was run?
A: 23 nM

Q: For CCC1C(=O)NCCN1c1cnc2nnn(Cc3ccc4ncccc4c3)c2n1 (stereo not drawn) [Example 97, 3-ethyl-4-[1-(quino-lin-6-yl-methyl)-1H-[1,2,3]tri-azolo[4,5-b]pyra-zin-6-yl]pipe-razin-2-one], which Ki is on record?
A: 20 nM

Q: Which Ki does the source give for CC1(CNc2cnc3nnn(Cc4ccc5ncccc5c4)c3n2)COC1 [Example 130, N-[(3-methyl-oxetan-3-yl)meth-yl]-1-(quino-lin-6-yl-methyl)-1H-[1,2,3]tri-azolo[4,5-b]pyra-zin-6-amine] here?
A: 7 nM

Q: CCc1nc(CN(C)c2cnc3nnn(Cc4ccc5ncccc5c4)c3n2)no1 [Example 87, N-[(5-ethyl-124-oxa-diazol-3-yl)meth- ]-N-meth-yl-1-(quino-lin-6-yl-methyl)-1H-[1,2,3]tri-azolo[4,5-b]pyra-zin-6-amine] was tested. Which Ki did it give?
A: 54 nM

Q: Which Ki does the source give for CC(C)(C(=O)O)n1cc(-c2cnc3nnn(Cc4ccc5ncccc5c4)c3n2)cn1 [Example 68, 2-Methyl-2-[4-(3-quinolin-6-ylmethyl-3H-[1,2,3]triazolo[4,5-b]pyrazin-5-yl)-pyrazol-1-yl]-propionic acid] here?
A: 27 nM

Q: c1cnc2ccc(Cn3nnc4ncc(-c5cnn(CC6CCNCC6)c5)nc43)cc2c1 [Example 4] was tested. Which Ki did it give?
A: 69 nM

Q: O[C@@H]1COC[C@H]1Nc1cnc2nnn(Cc3ccc4ncccc4c3)c2n1 [Example 131, (3S4R)-4-{[1-(quino-lin-6-yl-methyl)-1H-[123]tri-azolo[45-b]pyra-zin-6-yl]ami-no}tetrahydro-furan-3-ol] was tested. Which Ki did it give?
A: 54 nM

Q: OCC1CCN(c2cnc3nnn(Cc4ccc5ncccc5c4)c3n2)CC1 [Example 80, {1-[1-(quinolin-6-yl-methyl)-1H-[1,2,3]tri-azolo[4,5-b]py-razin-6-yl]pipe-ridin-4-yl}methanol] was tested. Which Ki did it give?
A: 21 nM

Q: C[C@@H](O)CNc1cnc2nnn(Cc3ccc4ncccc4c3)c2n1 [Example 114, (2R)-1-{[1-(quino-lin-6-yl-methyl)-1H-[1,2,3]tri-azolo[4,5-b]pyra-zin-6-yl]ami-no}propan-2-ol] was tested. Which Ki did it give?
A: 40 nM

Q: With Cn1nc(C(F)(F)F)cc1-c1cnc2nnn(Cc3ccc4ncccc4c3)c2n1 [Example 64, 6-[6-(2-Methyl-5-trifluoromethyl-2H-pyrazol-3-yl)-[1,2,3]triazolo[4,5-b]pyrazin-1-ylmethyl]-quinoline] as the compound, how does the Ki read?
A: 4 nM

Q: How did the Ki turn out when c1cnc2ccc(Cn3nnc4ncc(N5CCNCC5)nc43)cc2c1 [Example 33, 6-((6-(piperazin-1-yl)-1H-[1,2,3]triazolo[4,5-b]pyrazin-1-yl)methyl)quinoline] was run?
A: 10 nM

Q: How did the Ki turn out when CN[C@@H]1CCN(c2cnc3nnn(Cc4ccc5ncccc5c4)c3n2)C1 [Example 134, (3R)-N-methyl-1-[1-(quino-lin-6-yl-methyl)-1H-[1,2,3]tri-azolo[4,5-b]pyra-zin-6-yl]pyrro-lidin-3-amine] was run?
A: 7 nM

Same assay, conditions: Ki, HGFR 50 nM, Met-2 peptide 0.5 mM, ATP 300 μM, 37° C., absorbance 340 nm

Q: c1cnc2ccc(Cn3nnc4ncc(N5CCc6nc[nH]c6C5)nc43)cc2c1 [Example 100, 6-{[6-(3,4,6,7-tetra-hydro-5H-imi-dazo[4,5-c]pyri-din-5-yl)-1H-[1,2,3]tri-azolo[4,5-b]pyra-zin-1-yl]meth-yl}quinoline] was tested. Which Ki did it give?
A: 37 nM

Q: With Cc1nccn1CC1(O)CCN(c2cnc3nnn(Cc4ccc5ncccc5c4)c3n2)C1 (stereo not drawn) [Example 104, 3-[(2-methyl-1H-imi-dazol-1-yl)meth-yl]-1-[1-(quino-lin-6-yl-methyl)-1H-[1,2,3]tri-azolo[4,5-b]pyra-zin-6-yl]pyrro-lidin-3-ol] as the compound, how does the Ki read?
A: 49 nM
